Measurements reported in patent US3982931A, “N,N-di-sec.butyl-benzamide herbicides” (priority 1967, dated 1976).

Tests used:
Gladiolus sp. = assay: activity of PA 106 on useful species (treatment after unearthing the tubers); type: in vivo
Text: (§1) Method of evaluation of the results (of tests):
(§2) 0 = no activity and no difference with respect to the control;
(§3) 1 slight differences with respect to the control;
(§4) 3 = considerable activity with damages that definitely impair the further development of most of the small plants; an activity degree already useful for practical purposes;
(§5) 4 = maximum of activity with lack of germination or total containment of the small plants in the emerging stage.
(§6) In the case of an intermediate activity between two classes of the scale, both values are recorded with the one which corresponds to the preeminent activity preceding.
(§7) TABLE 3 reports data on the herbicidal activity against infesting herbs, while TABLE 4 reports data concerning the activity on useful species of agricultural cultivations. These tables employ the criterion explained previously. The product was spread on the soil one day after sowing, in quantities of 1, 3, 6, 8, 10, 12 and 14 kg/ha.
In the case of gladiolus, the treatment was carried out after unearthing the tubers.

[1] = tested on: Brassica oleracea, L. (cabbage); assay: activity of PA 106 on useful species; type: in vivo
Text: as §1, §2, §3, §4, §5, §6, §7

Brassica napus L. colza = assay: activity of PA 106 on useful species; type: in vivo
Text: as §1, §2, §3, §4, §5, §6, §7

Soja Hispida L. (soya) = assay: activity of PA 106 on useful species; type: in vivo
Text: as §1, §2, §3, §4, §5, §6, §7

[2] = tested on: Hordeum vulgare L. (barley); assay: activity of PA 106 on useful species; type: in vivo
Text: as §1, §2, §3, §4, §5, §6, §7

oryza sativa L. (rice) = assay: activity on agrarian species, soil treatment one day after sowing; type: in vivo
Summary of the method: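 Pre-emergence soil treatment of rice applied one day after sowing at 1, 3, 6, 8, 10, 12 and 14 kg/ha. Crop injury scored against untreated control on a 0–4 scale, 4 being no germination or total containment at emergence; intermediate activity recorded as both adjacent classes.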

[3] = tested on: echinocloa crus-galli R.S.; assay: herbicidal activity, soil treatment one day after sowing; type: in vivo
rice = assay: Example 3 rice field test, granular composition; type: in vivo; conditions: 4, 6, 8 and 10 kg/ha
Protocol: In this test a granular composition of PA 106 containing 5% of active principle and 95% of bentonite was used. The treatment was carried out in a rice field with areas of from 900 to 1000 sq.m on naked soil flooded just shortly before the sowing of the rice. There were used doses of granulate equal to 4, 6, 8 and 10 kg of active substance per hectar of surface.

avena sativa (oats) = assay: activity on agrarian species, soil treatment one day after sowing; type: in vivo, Avena sativa L.
setaria glauca L. = assay: herbicidal activity, soil treatment one day after sowing; type: in vivo
[4] = tested on: beta vulgaris L. (sugar-beet); assay: activity on agrarian species, soil treatment one day after sowing; type: in vivo
Text: The infesting species and the agrarian species have been indicated in Table 1 by letters, as follows:
H = beta vulgaris L. (sugar-beet)
as §1, §2, §3, §4, §5, §6
TABLE 2 reports the activity data of other compounds that fall within the class which is the object of this invention.
as §7

`CCC(C)N(C(=O)c1ccc(Cl)c(Cl)c1)C(C)CC` (stereo not shown) [PA106, 3,4-dichloro-N,N-di-sec.butyl-benzamide] was tested, and the “activity on useful species, Table 4” value (Gladiolus sp.; 1 kg/ha) was 0, the “activity on useful species, Table 4” value (Gladiolus sp.; 3 kg/ha) was 0 and the “activity on useful species, Table 4” value (Gladiolus sp.; 6 kg/ha) was 0. For the same compound, the “activity on useful species, Table 4” value (Gladiolus sp.; 8 kg/ha) was 0, the “activity on useful species, Table 4” value (Gladiolus sp.; 10 kg/ha) was 0 and the “activity on useful species, Table 4” value (Gladiolus sp.; 12 kg/ha) was 0. For the same compound, the “activity on useful species, Table 4” value (Gladiolus sp.; 14 kg/ha) was 0, the “activity on useful species, Table 4” value ([1]; 1 kg/ha) was 0 and the “activity on useful species, Table 4” value ([1]; 3 kg/ha) was 0. For the same compound, the “activity on useful species, Table 4” value ([1]; 6 kg/ha) was 0/1, the “activity on useful species, Table 4” value ([1]; 8 kg/ha) was 1 and the “activity on useful species, Table 4” value ([1]; 10 kg/ha) was 1/2. The “activity on useful species, Table 4” value ([1]; 12 kg/ha) was 1/2, the “activity on useful species, Table 4” value ([1]; 14 kg/ha) was 2 and the “activity on useful species, Table 4” value (Brassica napus L. colza; 1 kg/ha) was 0. For the same compound, the “activity on useful species, Table 4” value (Brassica napus L. colza; 3 kg/ha) was 0, the “activity on useful species, Table 4” value (Brassica napus L. colza; 6 kg/ha) was 1 and the “activity on useful species, Table 4” value (Brassica napus L. colza; 8 kg/ha) was 1/2. For the same compound, the “activity on useful species, Table 4” value (Brassica napus L. colza; 10 kg/ha) was 2/3, the “activity on useful species, Table 4” value (Brassica napus L. colza; 12 kg/ha) was 3 and the “activity on useful species, Table 4” value (Brassica napus L. colza; 14 kg/ha) was 3. For the same compound, the “activity on useful species, Table 4” value (Soja Hispida L. (soya); 1 kg/ha) was 0, the “activity on useful species, Table 4” value (Soja Hispida L. (soya); 3 kg/ha) was 0 and the “activity on useful species, Table 4” value (Soja Hispida L. (soya); 6 kg/ha) was 0. The “activity on useful species, Table 4” value (Soja Hispida L. (soya); 8 kg/ha) was 0, the “activity on useful species, Table 4” value (Soja Hispida L. (soya); 10 kg/ha) was 0/1 and the “activity on useful species, Table 4” value (Soja Hispida L. (soya); 12 kg/ha) was 0/1. The “activity on useful species, Table 4” value (Soja Hispida L. (soya); 14 kg/ha) was 0/1, the “activity on useful species, Table 4” value ([2]; 1 kg/ha) was 0 and the “activity on useful species, Table 4” value ([2]; 3 kg/ha) was 0. The “activity on useful species, Table 4” value ([2]; 6 kg/ha) was 0, the “activity on useful species, Table 4” value ([2]; 8 kg/ha) was 0 and the “activity on useful species, Table 4” value ([2]; 10 kg/ha) was 0/1. For the same compound, the “activity on useful species, Table 4” value ([2]; 12 kg/ha) was 0/1, the “activity on useful species, Table 4” value ([2]; 14 kg/ha) was 0/1 and the “activity on useful species, Table 4” value (oryza sativa L. (rice); 1 kg/ha) was 0. The “activity on useful species, Table 4” value (oryza sativa L. (rice); 3 kg/ha) was 0, the “activity on P, 0-4 scale” value (oryza sativa L. (rice); 6 kg/ha) was 0 and the “activity on useful species, Table 4” value (oryza sativa L. (rice); 6 kg/ha) was 0. For the same compound, the “activity on useful species, Table 4” value (oryza sativa L. (rice); 8 kg/ha) was 0, the “activity on useful species, Table 4” value (oryza sativa L. (rice); 10 kg/ha) was 0 and the “activity on useful species, Table 4” value (oryza sativa L. (rice); 12 kg/ha) was 0. The “activity on useful species, Table 4” value (oryza sativa L. (rice); 14 kg/ha) was 0/1, the “herbicidal activity, Table 3” value ([3]; 1 kg/ha) was 0/1 and the “activity on D, 0-4 scale” value ([3]; 2 kg/ha) was 2. The “herbicidal activity, Table 3” value ([3]; 3 kg/ha) was 3, the “activity on D, 0-4 scale” value ([3]; 4 kg/ha) was 3-4 and the “activity on D, 0-4 scale” value ([3]; 6 kg/ha) was 4. For the same compound, the “herbicidal activity, Table 3” value ([3]; 6 kg/ha) was 4, the “herbicidal activity, Table 3” value ([3]; 8 kg/ha) was 4 and the “herbicidal activity, Table 3” value ([3]; 10 kg/ha) was 4. For the same compound, the “herbicidal activity, Table 3” value ([3]; 12 kg/ha) was 4, the “herbicidal activity, Table 3” value ([3]; 14 kg/ha) was 4 and the damage to rice (rice) was “without suffering any damage”. The “activity on useful species, Table 4” value (avena sativa (oats); 1 kg/ha) was 0, the “activity on useful species, Table 4” value (avena sativa (oats); 3 kg/ha) was 0 and the “activity on G, 0-4 scale” value (avena sativa (oats); 6 kg/ha) was 0. The “activity on useful species, Table 4” value (avena sativa (oats); 6 kg/ha) was 0, the “activity on useful species, Table 4” value (avena sativa (oats); 8 kg/ha) was 0 and the “activity on useful species, Table 4” value (avena sativa (oats); 10 kg/ha) was 0/1. For the same compound, the “activity on useful species, Table 4” value (avena sativa (oats); 12 kg/ha) was 0/1, the “activity on useful species, Table 4” value (avena sativa (oats); 14 kg/ha) was 1 and the “herbicidal activity, Table 3” value (setaria glauca L.; 1 kg/ha) was 2/3. The “herbicidal activity, Table 3” value (setaria glauca L.; 3 kg/ha) was 3, the “activity on E, 0-4 scale” value (setaria glauca L.; 4 kg/ha) was 3-4 and the “activity on E, 0-4 scale” value (setaria glauca L.; 6 kg/ha) was 4. The “herbicidal activity, Table 3” value (setaria glauca L.; 6 kg/ha) was 4, the “herbicidal activity, Table 3” value (setaria glauca L.; 8 kg/ha) was 4 and the “herbicidal activity, Table 3” value (setaria glauca L.; 10 kg/ha) was 4. The “herbicidal activity, Table 3” value (setaria glauca L.; 12 kg/ha) was 4, the “herbicidal activity, Table 3” value (setaria glauca L.; 14 kg/ha) was 4 and the “activity on useful species, Table 4” value ([4]; 1 kg/ha) was 0. For the same compound, the “activity on useful species, Table 4” value ([4]; 3 kg/ha) was 0, the “activity on H, 0-4 scale” value ([4]; 6 kg/ha) was 1 and the “activity on useful species, Table 4” value ([4]; 6 kg/ha) was 1. For the same compound, the “activity on useful species, Table 4” value ([4]; 8 kg/ha) was 1, the “activity on useful species, Table 4” value ([4]; 10 kg/ha) was 1/2 and the “activity on useful species, Table 4” value ([4]; 12 kg/ha) was 2. For the same compound, the “activity on useful species, Table 4” value ([4]; 14 kg/ha) was 2/3.
